Legend:
CBA/CaJ mice = assay: Auditory brainstem response (ABR) thresholds in aging CBA/CaJ mice; type: in vivo, mouse
Description: After 60 (2 months) or 120 days (4 months) of ALD implantation, mice were anesthetized with a combination of ketamine and xylazine (100 μl i.p. of sterile saline containing 100 mg/ml ketamine and […]) for ABR measurements.
Auditory brainstem responses (ABRs) were measured again at 2 and 4 months after treatment started
Auditory brainstem responses were obtained as follows. The mice were anesthetized with a mixture of ketamine/xylazine (120 and 10 mg/kg body weight, respectively, intraperitoneal injection) prior to all experimental sessions. All recording sessions were completed in a soundproof acoustic chamber (IAC) with body temperature maintained with a heating pad. ABRs were measured using Biosig (TDT, Alachua, Fla.) data-acquisition system which recorded responses to 5 ms tone pips ([…] rise-fall times) with a cos^2 onset envelope, presented at rate of 29/sec. Wave I threshold was defined as the lowest intensity which elicited a clearly replicable response. ABRs were measured pre-treatment and post-treatment at 2 and 4 mon. The pre-treatment ABR threshold was used as the baseline to calculate the thresholds shifts. The wave I peak-to-peak amplitudes were analyzed. Data was compared using GraphPad Prism 5.0 (GraphPad Software, Inc. La Jolla, Calif., USA.
As male mice weigh on average 28.0 g at week 9 and female mice 23.1 g, doses of the anti-inflammatory were designed to bracket a dose of 5 mg/kg/day. A total five groups (n=8, half male and half female) were tested. Treatment continued for 120 days or until the mouse was euthanized. […] Death was confirmed by terminal phlebotomy/exsanguinations and perfusion.
Mice were treated at middle age, as above, using 0.0016 mg/day of D-aldosterone, a combination of 0.0016 mg/day of D-aldosterone and 0.042 mg/day of Aspirin; and a control placebo (saline).

[1] = system: Spiral ganglion neuron (SGN); assay: Spiral ganglion neuron cell density, H&E staining of cochlear sections; type: in vivo, mouse; settings: upper apical, lower apical, upper basal, lower basal regions; ALD-treated middle-aged mice vs untreated control mice
Description: Death was confirmed by terminal phlebotomy/exsanguinations and perfusion.
For immunohistochemistry, mice were sacrificed, and one of the cochleae dissected, fixed in 4% paraformaldehyde in PBS overnight at 4° C., decalcification in 10% EDTA in PBS for a week at 4° C., and incubated in cryoprotection solution overnight at 4° C. The cochleae were embedded into degassed OCT overnight at 4° C., orientated into the cryomold with OCT degassed for 1 hour, then frozen at −80° C. Cryosectioning was performed at 5 μm per section. The cochlear cross sections were stained with hematoxylin and eosin (H&E) and MCR (H-300) (sc-11412, Santa Cruz Bio). The spiral ganglion neurons were counted by Metamorph imaging software (Molecular Devices, Center Valley, Pa. 18034-0610) and data analyzed by GraphPad Prism (GraphPad Software, Inc. La Jolla, Calif.).
Spiral ganglion neuron (SGN) cell density was measured from 4 different topographical area, comparing ALD-treated middle-aged mice to age-matched controls. […] Further, this increase in SGN is correlated with ABR threshold shifts (shown below) in the same mice.

NKCC1 mRNA = NKCC1 mRNA in HT-29 cells, semiquantitative and real-time RT-PCR; type: cell-based, human; settings: ALD 1 μM, both RT-PCR methods
Description: Relative quantitative RT-PCR. Total RNA was extracted using the RNAeasy Mini Kit (Qiagen, Valencia Calif.). […] Primers used for qRTPCR were as follows: […]
The semiquantitative qRT-PCR reaction took place at 45° C. for 50 min. The competition between primer sets was excluded by adjusting the reaction condition.
Then, the primer products were PCR amplified directly. A first cycle of 10 min. at 95° C., 45 s at 65° C., and 1 min at 72° C. was followed by 45 s at 95° C., 45 s at 65° C., and 1 min at 72° C. for 25 cycles. The conditions were chosen so that the RNAs analyzed were in the exponential phase of amplification. Each set of reactions always included a no-sample negative control. We usually performed a negative control containing RNA instead of cDNA to rule out genomic DNA contamination.
The real-time RT-PCR reaction mixture was prepared using the SYBR-Green PCR Master Mix. Thermal cycling conditions were the same as in the semiquantitative method. Amplification specificity was checked using melting curves. Both negative and positive controls were included in each PCR reaction. All assays were carried out three times as independent PCR runs for each cDNA sample. […] Calculations of expression were performed with the […] method (Bustin, et al., Quantitative real-time RTPCR—a perspective. J Mol Endocrinol 34: 597-601, 2005).

[2] = Tail-cuff plethysmography of blood pressure; type: in vivo, mouse; settings: 0.0016 mg/day pellet, measured at 2 and 4 months
Description: (§1) FIG. 27(A) is graph showing the tail-cuff plethysmography of blood pressure for ALD treatments of 60 days and 120 days, compared to middle-age control mice. Diastolic blood pressures were measured for middle-aged (20-21 mon) CBA/CaJ mice and middle-age ALD treated (0.0016 mg/day continuous release through 120 days, one pellet for 60 days and subsequently a second pellet for 60 days) mice, each group, n=5. Pressures were taken at 60 and 120 days and compared to the middle-age control animals. Mean±SD for each group.
as §1, with “27(B)” for “27(A)”, “is a” for “is”, “Systolic” for “Diastolic”
During treatment, blood pressures were measured for the mice at 2 and 4 months after start of treatment.

caspase-3 = assay: Caspase-3 expression in modiolar tissue samples; type: in vivo, mouse; settings: ALD-treated middle-aged mice vs control middle-aged and young mice
Description: During treatment, blood pressures were measured for the mice at 2 and 4 months after start of treatment. […] Death was confirmed by terminal phlebotomy/exsanguinations and perfusion. Cell lysates were collected and subject to western blot and RT-PCT analysis. The cells were placed in RIPA buffer and sonicated. Protein concentration was measured using the Bradford method. Proteins were separated by SDS-PAGE. The antibodies used for western blot were: anti-iNOS, nNOS and caspase-3 antibodies (Cell Signaling, Cambridge, Mass.). Total cellular RNA was extracted using the RNeasy Plus Mini Kit (74134). For RT-PCR, 10 ng of total cellular RNA was reverse transcribed and complementary DNA was amplified, using the Enhanced Avian HS RT-PCR-100 Kit (Sigma, HSRT20).

C[C@]12CCC(=O)C=C1CC[C@@H]1[C@@H]2[C@@H](O)C[C@]2(C=O)[C@@H](C(=O)CO)CC[C@@H]12 [ALD, aldosterone]
ABR frequency response (CBA/CaJ mice; 12, 24, 32, 36 kHz at 2 months and 4 months, 0.0016 mg/day): showed improvement | ABR thresholds, control vs ALD treated group (CBA/CaJ mice; 24, 32 and 36 kHz, at 120 days): significantly elevated in the control, non-treated, group relative to the ALD treated group | ABR shift / ABR thresholds (CBA/CaJ mice; 24 kHz and 36 kHz, 2 and 4 month of treatment, vs placebo, Example 7): reduced ABR shifts | ABR peak 1 amplitude (CBA/CaJ mice; high sound levels, relative to the control group): increased significantly at high sound levels | dose optimal for ABR threshold improvements (CBA/CaJ mice; slow-release subcutaneous pellets, doses 0.00048 to 0.00476 mg/day, 60 or 120 days, relative to age-matched control mice): 0.0016 mg/day | SGN density [1]: SGN density was higher | NKCC1 mRNA (NKCC1 mRNA): no mRNA change | diastolic or systolic blood pressure [2]: neither aging nor the hormone treatment appeared to affect either diastolic or systolic blood pressure | caspase-3 levels in modiolar tissue (caspase-3): reduced caspase-3 to levels below even the young mice samples

Source: patent publication US10342806B2, “Hormone treatment for age-related hearing loss-presbycusis” (priority 2014, dated 2019)
